row,SMILES,melting point [°C]
1,COc1ccc(C2=NN(Cc3ccccc3O)C(=O)[C@H]3CCCC[C@@H]23)cc1OC (relative stereo),132 to 133
2,O=C(O)C1=COc2c(C(=O)c3cccs3)cc(Cl)c(Cl)c2O1,233 to 236
3,CCOCc1nc2c(N)nc3ccccc3c2n1C[C@H]1COC(C)(C)O1,130 to 131
4,CC(C)(C)OC(=O)N1CCC(c2ccc(N3C[C@@H](CCO)OC3=O)cc2F)CC1,120 to 122
5,COC(C)c1ccc(OCCCN2CCC(c3noc4cc(F)ccc34)CC2)c(O)c1 (stereo not given),98 to 100
6,Cc1c(NC(=O)c2ccc(OC[C@@H]3CCCO3)cc2)ccc2[nH]c(CNCC3CCOCC3)cc12,166 to 167
7,CCc1noc(C)c1-c1[nH]c2ccccc2c1C(=O)C(=O)N(C)C,212 to 215
8,CN1CCN(c2cc(-c3cnc4c(c3)N(C(=O)Cc3cc(F)ccc3F)CCN4)ccn2)CC1,> 300
9,CCCOc1nc2cccc(C(=O)O)c2n1Cc1ccc(-c2ccccc2-c2nc(=O)o[nH]2)cc1,170 to 172
10,CNC(=O)C1=CC2(CCOCC2)Oc2ccc([N+](=O)[O-])cc21,183 to 184
11,Cc1ccc(C(C)(C)C)c(Oc2ccc(O)cc2)c1,102
12,c1cncc(Nc2nnc(Cc3ccncc3)c3ccccc23)c1,137 to 139
13,Cc1cc(-c2ccccc2Cl)nn1C(C)(C)C(=O)N(C)C,104 to 106
14,CCCCNc1ncc(C(=O)c2ccc(N)c([N+](=O)[O-])c2)s1,198 to 203
15,O=C(O)c1cn(-c2ccc(F)cc2)c(C=Cc2ccncc2)cc1=O,205 to 215
16,CCCCCCCCCCCCC(C)(C)NC(=O)Nc1ccccc1C(=O)NC1CCN(C(c2ccccc2)c2ccccc2)CC1,146 to 148
17,CCCNc1nc(N)nc2c1ncn2C1C=CC(CO)C1 (stereo not given),138 to 140
18,CC1CCN(c2cc3nc(C(C)(C)C)sc3cc2[N+](=O)[O-])CC1,116 to 120
19,CCOC(=O)Cc1cccc(N[C@@H](CCC(N)=O)C(=O)O)c1,176
20,CC1=NN(C(=O)c2ccccc2Cl)C2(O)CCCC12 (stereo not given),147 to 150
21,CNC(=O)C(=NOC)c1c(F)cccc1COc1ccccc1C,93
22,Cn1nnnc1SCC1=C(C(=O)OCOC(=O)C(C)(C)C)N2C(=O)C(NC(=O)Cc3csc(=O)s3)C2SC1 (stereo not given),100
23,CCCCC1(CCCC)CCc2c(OCc3ccccc3C(N)=O)cccc2C1O (stereo not given),73 to 75
24,O=c1[nH]c2ccc(F)cc2c(=O)n1-c1ccc(Cl)cc1Cl,313 to 314

row,SMILES,melting point [°C]
1,Cc1cc(OCc2ccc(-c3ccccc3-c3nnn[nH]3)cc2)c(C(=O)O)c(C)n1,237
2,C=CC(=O)NC1CC(C)(C)N(C=CC(=O)OCC)C(C)(C)C1,123 to 125
3,Nc1nc2c(s1)CCNCC2,150 to 160
4,O=C(O)CCCC(=O)Oc1cccc(-c2cn3c(n2)sc2ccccc23)c1,168 to 171
5,CCOC(=O)C1=C(N)NC(N)=C(C(=O)OCC)C1c1ccccc1[N+](=O)[O-],142
6,CCOc1ccccc1CNc1nc(N)n2nc(-c3ccco3)nc2n1,243 to 246
7,COc1ccc(C2(c3ccc(OC)cc3)CCN(CC[C@@H]3C=C4c5cccc6[nH]cc(c56)C[C@H]4N(C)C3)CC2)cc1,184 to 187
8,Cc1ccc(NS(=O)(=O)Cc2ccccc2)c(OCc2ccccc2)c1CC(=O)O,132 to 134
9,CCCCOCCCCCCCCCCC(=O)O,29 to 30.5
10,O=[N+]([O-])c1ccc(NS(=O)(=O)c2cccc3ccccc23)cc1,210 to 215
11,O=C1c2ccccc2C(=O)c2c(O)c3c(c(O)c21)CCCC3,194 to 196
12,CCOC(=O)C1=Cc2cc(S(C)=O)ccc2OC1C(F)(F)F (stereo not given),92.2 to 98.4
13,BrCCCCCCOc1ccc(C2=NCCO2)cc1,79 to 81
14,C#CCOC(=O)[C@H](Cc1c[nH]cn1)NC(=O)C(Cc1cccc2ccccc12)Cc1cccc2ccccc12,187 to 189
15,OCC(O)COC(c1ccccc1)(c1ccccc1)c1ccccc1 (stereo not given),108 to 110
16,Cc1c(CO)c(CO)c2n1Cc1c(c3ccccc3n1C)C2,200 to 201
17,OC(c1ccccc1)c1ccccc1Cl (stereo not given),61 to 63
18,NS(=O)(=O)c1ccc(N2N=C(C(F)(F)F)CC2c2ccc(F)cc2F)cc1 (stereo not given),161 to 162
19,CC(=O)NC[C@H]1CN(c2ccc(C3=CCCN(C(=O)CO)C3)c(F)c2)C(=O)O1,188 to 190
20,N#Cc1c(-c2ccc(OCc3ccccc3)cc2)[nH]c2ccc(OCc3ccccc3)cc12,64 to 66
21,Cc1ncc(CSC(=O)c2ccccc2)c(CO)c1O,174 to 177
22,Cc1cn(C[C@H]2CN(c3ccc(-c4ccc(C#N)nc4)c(F)c3)C(=O)O2)nn1,210 to 212
23,Cc1ccc(N2CCN(CCCCl)CC2)cc1,34 to 36
24,Cc1ccc(-n2c(-c3ccc(C#C[Si](C)(C)C)cc3)ccc2-c2ccc(C#C[Si](C)(C)C)cc2)cc1,223 to 224

row,SMILES,melting point [°C]
1,Cc1ccc(Nc2c(C)cc(Cl)cc2Cl)c(CC(=O)O)c1,137 to 141
2,CCn1cc(C(=O)O)c(=O)c2cc(F)c(N3CCSCC3)nc21,241 to 243
3,CC(C)c1cccc(C(C)C)c1NC(=O)CN1CCCN(CCCSc2nc3ncccc3o2)CC1,73 to 75
4,C=CCONC(=O)c1c([Si](C)(C)C)ccc(Cl)c1Cl,92 to 94
5,O=C(N[C@@H](Cc1ccc(OCc2ccsc2)cc1)C(=O)O)c1cn2cc(-c3ccc(Cl)cc3)ccc2n1,203
6,CC(c1ccsc1)N(O)C(N)=O (stereo not given),138 to 140
7,O=C1c2ccccc2-c2ccc(-c3nc(COc4ccc(CCCn5ccnc5)cc4)co3)cc21,153 to 154
8,CCOC(=O)N1CCC(=C2c3ccccc3CCn3c(C(=O)O)cnc32)CC1,182
9,O=C(O)CCNc1ccccc1CNC(=O)C1Cc2ccccc2N1S(=O)(=O)c1ccc(-c2ccc(F)cc2F)cc1 (stereo not given),106 to 110
10,COc1c(C)cc(C(=O)N2CCN(c3ncccc3NC(C)C)CC2)cc1C,89 to 93
11,COc1ccc(C2=CCC(C#N)CC2)c2c1OCCO2 (stereo not given),79
12,COc1cc(/C=C(\C(=O)NCCCCCC(=O)NO)c2ccc(F)cc2)cc(OC)c1,104 to 105
13,CNCc1cccc(-c2ccc(CC3SC(=O)NC3=O)c(C)c2)c1 (stereo not given),135
14,COCCOc1cc(N)c(Cl)cc1C(=O)OC,121 to 122
15,CN(CC(=O)OCCCCNc1cccc2c1C(=O)c1ccccc1C2=O)C(=O)OC(C)(C)C,90
16,CCOC(=O)CCC(=O)NCc1ccc([N+](=O)[O-])cc1,104 to 106
17,Nc1c(CC(=O)O)cccc1S(=O)(=O)c1ccc(Cl)cc1,139 to 141
18,CC(C)NC(=O)c1c(OS(C)(=O)=O)cccc1C(=O)O,56 to 59
19,COc1ccc(-n2nc(N3CCN(C#N)CC3)c3ccccc32)cc1,118 to 120
20,CC(C)CCCc1c(-c2ccc(S(C)(=O)=O)cc2)cnn(-c2ccc(F)c(F)c2)c1=O,111 to 113
21,CN(c1ccccc1)c1nc(Cl)nc(Cl)n1,132
22,C#CCCCOc1c(C)cc(-c2noc(C)n2)cc1C,41.5 to 43
